Where a SMILES comes first, the peptide text is derived from it. [ ]: non-standard residue; d: D form. dPhe(4-Cl) = N[C@H](Cc1ccc(Cl)cc1)C(=O)O; d2Nal = N[C@H](Cc1ccc2ccccc2c1)C(=O)O; dCit = NC(=O)NCCC[C@@H](N)C(=O)O; d3Pal = N[C@H](Cc1cccnc1)C(=O)O
Experiment: Solubility in water according to DAB 10
Type: physicochemical
Source text: The solubility in water for the active substance and the substance or substances forming the lipophilic matrix can be defined as specified in DAB 10 (Deutsches Arzneibuch, 10th edition with 3rd supplement 1994, Deutscher Apothekerverlag, Stuttgart und Govi Verlag, Frankfurt/Main, 2nd supplement (1993), IV Allgemeine Vorschriften, pp. 5-6, “Löslichkeit und Lösungsmittel”; see also Ph. Eur. Jul. 4, 2004). The solubility is defined by the number of parts by volume of solvent for 1 part by weight of substance or drug. The definition of “sparingly soluble” includes substances which require from 30 to 100 parts by volume of solvent for 1 part by weight of substance or drug, and the definition of “slightly soluble” includes substances which require from 100 to 1000 parts by volume of solvent for 1 part by weight of substance or drug.

Row | Molecule | solubility in water according to DAB 10 | solubility (equivalent of the DAB 10 parts) | solubility in water, equivalent
1 | CC(=O)N[C@H](Cc1ccc2ccccc2c1)C(=O)N[C@H](Cc1ccc(Cl)cc1)C(=O)N[C@H](Cc1cccnc1)C(=O)N[C@@H](CO)C(=O)N[C@@H](Cc1ccc(O)cc1)C(=O)N[C@H](CCCNC(N)=O)C(=O)N[C@@H](CC(C)C)C(=O)N[C@@H](CCCNC(=N)N)C(=O)N1CCC[C@H]1C(=O)N[C@H](C)C(N)=O [Cetrorelix acetate] (Ac-[d2Nal][dPhe(4-Cl)][d3Pal]SY[dCit]LRP[dA]-NH2) | at least 1000 parts of water for 1 part of active substance | 1000 µg/mL | –
2 | Erythropoetin alfa: slightly soluble protein active substance | at least 500 parts of water for 1 part of active substance | – | 2000 µg/mL

From patent publication US8734849B2, “Multiparticle pharmaceutical dosage form containing a mucoadhesively formulated peptide or protein active substances method for producing said pharmaceutical dosage form” (Evonik Roehm GmbH, priority 2003, dated 2014)
